# Reference: ChEMBL document CHEMBL1201862, “PubChem BioAssay data set” (2004)
# Calls of active or inactive are those of the source.
# Key:
# Kallikrein-7 = Kallikrein-7 (Homo sapiens, UniProt P49862); test: Fluorescence Intensity-based biochemical primary high throughput dose response assay to identify activators of kallikrein-7 (K7) zymogen.
# [1] = biological target: Eukaryotic translation initiation factor 4E (Mus musculus, UniProt P63073); test: blockers of eIF4G binding by eIF4E – biochemical, TR-FRET, dose response (AID 855); assay type: functional;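 further: potency for disrupting eIF4E binding to eIF4GI seen as loss of FRET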
# [2] = biological target: T1, Carboxy-terminal domain RNA polymerase II polypeptide A small phosphatase 1 (Homo sapiens, UniProt Q9GZU7); test: CTDSP1 inhibitors, concentration-response, biochemical, absorbance readout, ultra-high-throughput screen actives (AID 540297); assay type: functional
# T1 sequence (Q9GZU7 whole entry): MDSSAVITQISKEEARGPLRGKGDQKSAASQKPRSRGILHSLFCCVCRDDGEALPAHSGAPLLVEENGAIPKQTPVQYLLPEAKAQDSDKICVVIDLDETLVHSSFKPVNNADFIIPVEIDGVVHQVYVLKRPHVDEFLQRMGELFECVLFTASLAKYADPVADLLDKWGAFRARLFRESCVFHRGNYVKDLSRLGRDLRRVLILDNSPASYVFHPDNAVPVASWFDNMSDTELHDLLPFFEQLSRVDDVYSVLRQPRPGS
# Cytochrome P450 2C9 = Cytochrome P450 2C9 (Homo sapiens, UniProt P11712)
# Cytochrome P450 3A4 [3] = biological target: T2, Cytochrome P450 3A4 (Homo sapiens, UniProt P08684)
# [4] = A cytotoxicity screen of small molecule inhibitors of the PhoP region in Salmonella typhi identified in the primary screen. [Related pubchem assays: 1850, 1864, 1985 ]; assay type: functional
# BJ [5] = test: growth inhibition of engineered Ras-driven BJ cells – cell-based, alamar blue fluorescence, cherrypicked samples, dose response (AID 2631); assay type: functional; settings: Homo sapiens;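 further: confirmatory dose-response assay in RAS-dependent BJ fibroblasts engineered with TERT, LT and ST, with cytotoxicity read by fluorescence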
# [6] = alpha-synuclein stem-loop luciferase translation blockers – H4 neuroglioma cells, luminescence, confirmation (AID 1988); assay type: functional, cell-based
# [7] = DRD fibroblast viability loss – cell-based, non-viral oncogenic, luminescence, dose response (AID 1934); assay type: functional; settings: Homo sapiens
# [8] = Luminescence Cell-Based Dose Retest to Confirm Inhibitors of Cancer Stem Cells. [Related pubchem assays (depositor defined):AID2717, AID2721]; assay type: functional; settings: Homo sapiens
# BJ [9] = test: cells; assay type: functional, cell-based; settings: Homo sapiens
# [10] = luciferase reporter signal suppression in cells – H4 neuroglioma cells, luminescence, dose response (AID 1990); assay type: functional, cell-based
# [11] = Luminescence Cell-Based Dose Response HTS to Identify Inhibitors of 5'UTR Stem-Loop Driven Prion Protein mRNA Translation in H4 Neuroglioblastoma Cells. [Related pubchem assays: 1827 (Project Summary), 1813 (Primary HTS)]; assay type: functional
# BJ [12] = test: BJ-TERT-LT-ST fibroblast viability loss – cell-based, RAS-independent, luminescence, dose response (AID 1935); assay type: functional; settings: Homo sapiens;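 further: BJ fibroblasts immortalized with TERT plus LT and ST oncogenes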
# BJ [13] = test: BJ-TERT fibroblast viability loss – cell-based, RAS-independent, luminescence, dose response (AID 1933); assay type: functional; settings: Homo sapiens
# Cytochrome P450 3A4 [14] = biological target: T2, Cytochrome P450 3A4; settings: Potency
# Protein Wnt-3a = Protein Wnt-3a (Mus musculus, UniProt P27467); test: antagonism of Wnt3a pathway luciferase reporter – Wnt-LIGHT cells, luminescence, selectivity assay for Gli-SUFU antagonist project, dose response (AID 651570); assay type: functional; settings: read-out: IC50_Mean;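 further: Wnt-LIGHT reporter cells stimulated with conditioned medium from Wnt3a-producing cells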
# [15] = reduction of Shn3 3'UTR-driven luciferase in osteoblasts – cell-based, Clone20 osteoblasts, firefly luciferase, cherry-picked, dose response (AID 624132); assay type: functional;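 further: firefly luciferase luminescence from reporter carrying the Shn3 3'UTR in osteoblasts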
# [16] = non-specific 3'UTR reporter inhibition in Clone20-Shn3RL – cell-based, Renilla luciferase, cherry-picked, counter-screen for Shn3 inhibitor project, dose response (AID 624133); assay type: functional
# Cytochrome P450 2D6 = Cytochrome P450 2D6 (Homo sapiens, UniProt P10635);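 further: CYP2D6 member of a cytochrome P450 panel assay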
# Cytochrome P450 2C19 = Cytochrome P450 2C19 (Homo sapiens, UniProt P33261); test: Cytochrome panel assay with activity outcomes. Panel member name: p450-cyp2c19 Compounds with AC50 equal or less than 10 uM are considered active; assay type: functional
# Cytochrome P450 1A2 = biological target: T3, Cytochrome P450 1A2 (Homo sapiens, UniProt P05177);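 further: PubChem cytochrome P450 panel assay, CYP1A2 panel member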
# T3 sequence (P05177 whole entry): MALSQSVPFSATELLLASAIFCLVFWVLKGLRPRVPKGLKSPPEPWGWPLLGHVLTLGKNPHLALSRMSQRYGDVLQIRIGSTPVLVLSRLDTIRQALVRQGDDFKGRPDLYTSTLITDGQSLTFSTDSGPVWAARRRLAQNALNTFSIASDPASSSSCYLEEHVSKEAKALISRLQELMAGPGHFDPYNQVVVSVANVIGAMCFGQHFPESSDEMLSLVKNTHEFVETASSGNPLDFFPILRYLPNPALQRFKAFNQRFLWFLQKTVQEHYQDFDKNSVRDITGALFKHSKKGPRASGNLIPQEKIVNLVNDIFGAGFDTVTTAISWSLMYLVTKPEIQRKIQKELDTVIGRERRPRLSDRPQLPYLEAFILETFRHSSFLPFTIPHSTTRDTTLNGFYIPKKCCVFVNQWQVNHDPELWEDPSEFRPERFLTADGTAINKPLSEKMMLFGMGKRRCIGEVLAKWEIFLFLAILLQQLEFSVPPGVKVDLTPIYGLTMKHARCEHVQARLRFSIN
# Cytochrome P450 3A4 [17] = biological target: T2, Cytochrome P450 3A4; remark: listed apart in the source
# Chain of Kallikrein-7 (P49862 whole entry): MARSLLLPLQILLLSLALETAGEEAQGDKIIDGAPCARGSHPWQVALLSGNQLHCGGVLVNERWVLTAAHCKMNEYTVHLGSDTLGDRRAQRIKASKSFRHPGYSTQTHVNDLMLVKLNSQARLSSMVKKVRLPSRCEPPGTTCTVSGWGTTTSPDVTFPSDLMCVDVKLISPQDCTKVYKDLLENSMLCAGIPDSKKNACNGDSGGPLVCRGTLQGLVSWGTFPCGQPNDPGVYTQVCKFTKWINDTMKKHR
# Chain of Eukaryotic translation initiation factor 4E (P63073 whole entry, the tested form may be a part): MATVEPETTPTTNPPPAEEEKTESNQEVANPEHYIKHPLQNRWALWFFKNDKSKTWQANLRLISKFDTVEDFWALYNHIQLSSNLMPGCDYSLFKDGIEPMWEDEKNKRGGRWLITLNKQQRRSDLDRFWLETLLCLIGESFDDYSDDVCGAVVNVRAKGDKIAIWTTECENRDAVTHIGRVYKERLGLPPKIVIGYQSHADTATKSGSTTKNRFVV
# T2 sequence (P08684 whole entry): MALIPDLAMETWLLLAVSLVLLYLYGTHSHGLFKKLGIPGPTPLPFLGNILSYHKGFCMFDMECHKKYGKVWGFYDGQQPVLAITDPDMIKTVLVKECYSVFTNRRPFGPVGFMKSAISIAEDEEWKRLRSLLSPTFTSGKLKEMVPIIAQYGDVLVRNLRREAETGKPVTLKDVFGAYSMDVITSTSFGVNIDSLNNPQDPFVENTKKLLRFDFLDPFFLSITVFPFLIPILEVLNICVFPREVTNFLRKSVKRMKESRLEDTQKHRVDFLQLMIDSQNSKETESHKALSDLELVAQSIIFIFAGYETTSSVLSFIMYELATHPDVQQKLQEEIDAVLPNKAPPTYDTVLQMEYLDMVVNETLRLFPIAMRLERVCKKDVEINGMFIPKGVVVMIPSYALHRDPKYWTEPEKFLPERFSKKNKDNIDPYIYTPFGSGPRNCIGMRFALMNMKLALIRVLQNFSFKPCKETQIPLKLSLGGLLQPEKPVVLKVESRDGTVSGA
# Chain of Cytochrome P450 2D6 (P10635 whole entry): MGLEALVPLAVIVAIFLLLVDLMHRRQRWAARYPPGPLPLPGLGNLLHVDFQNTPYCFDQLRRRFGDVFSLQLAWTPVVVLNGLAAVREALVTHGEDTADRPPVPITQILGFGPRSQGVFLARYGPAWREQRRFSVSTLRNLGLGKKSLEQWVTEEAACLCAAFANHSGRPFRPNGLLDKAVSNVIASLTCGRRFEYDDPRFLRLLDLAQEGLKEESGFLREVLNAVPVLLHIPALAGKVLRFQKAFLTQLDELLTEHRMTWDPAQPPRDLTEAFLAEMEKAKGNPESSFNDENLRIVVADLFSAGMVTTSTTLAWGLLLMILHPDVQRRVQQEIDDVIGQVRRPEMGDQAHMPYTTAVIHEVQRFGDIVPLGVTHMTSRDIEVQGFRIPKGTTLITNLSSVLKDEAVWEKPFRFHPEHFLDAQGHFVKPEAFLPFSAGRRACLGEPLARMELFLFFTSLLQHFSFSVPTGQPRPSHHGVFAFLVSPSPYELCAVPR
# Chain of Cytochrome P450 2C9 (P11712 whole entry): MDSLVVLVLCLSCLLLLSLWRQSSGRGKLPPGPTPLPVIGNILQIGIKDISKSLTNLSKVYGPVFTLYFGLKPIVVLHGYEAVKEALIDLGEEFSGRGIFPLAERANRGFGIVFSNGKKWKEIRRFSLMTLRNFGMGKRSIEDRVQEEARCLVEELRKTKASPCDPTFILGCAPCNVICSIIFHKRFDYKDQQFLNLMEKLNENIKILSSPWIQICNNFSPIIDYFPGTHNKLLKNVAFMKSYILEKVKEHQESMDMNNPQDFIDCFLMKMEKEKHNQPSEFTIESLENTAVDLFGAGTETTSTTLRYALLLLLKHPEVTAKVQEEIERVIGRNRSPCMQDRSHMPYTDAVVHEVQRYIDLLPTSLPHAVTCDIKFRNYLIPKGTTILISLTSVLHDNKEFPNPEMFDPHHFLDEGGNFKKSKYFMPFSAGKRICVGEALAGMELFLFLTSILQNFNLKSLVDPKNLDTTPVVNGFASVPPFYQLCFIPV
# Chain of Cytochrome P450 2C19 (P33261 whole entry): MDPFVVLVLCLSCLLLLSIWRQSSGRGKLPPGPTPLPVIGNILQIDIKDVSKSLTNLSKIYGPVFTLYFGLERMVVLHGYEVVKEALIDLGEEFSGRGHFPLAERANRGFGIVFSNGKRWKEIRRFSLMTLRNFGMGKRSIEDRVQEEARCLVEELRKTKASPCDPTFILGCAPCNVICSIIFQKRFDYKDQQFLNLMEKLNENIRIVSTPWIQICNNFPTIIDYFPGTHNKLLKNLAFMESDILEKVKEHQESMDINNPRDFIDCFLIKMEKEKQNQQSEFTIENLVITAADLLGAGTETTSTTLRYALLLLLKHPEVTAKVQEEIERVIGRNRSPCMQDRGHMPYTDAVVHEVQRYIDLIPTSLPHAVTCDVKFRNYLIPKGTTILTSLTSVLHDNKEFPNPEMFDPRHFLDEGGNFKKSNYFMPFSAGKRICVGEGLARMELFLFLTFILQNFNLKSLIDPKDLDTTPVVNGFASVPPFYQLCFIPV
# Chain of Protein Wnt-3a (P27467 whole entry): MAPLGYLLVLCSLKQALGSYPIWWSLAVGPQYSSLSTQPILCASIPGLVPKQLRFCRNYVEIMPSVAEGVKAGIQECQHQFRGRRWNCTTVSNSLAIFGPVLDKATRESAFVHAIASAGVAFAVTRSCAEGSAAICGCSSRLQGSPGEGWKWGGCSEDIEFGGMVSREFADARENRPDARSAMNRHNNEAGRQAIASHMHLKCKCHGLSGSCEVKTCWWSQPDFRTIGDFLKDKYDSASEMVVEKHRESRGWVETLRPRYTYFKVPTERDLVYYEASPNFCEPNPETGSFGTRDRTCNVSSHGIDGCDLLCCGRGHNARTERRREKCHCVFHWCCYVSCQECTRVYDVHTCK
structure (smiles),measurement,setting,value
COC(=O)CNC(=O)COC(=O)c1cc(Cl)cc(Cl)c1N,EC50,Kallikrein-7,> 69.5 µM (inactive)
O=C(CSc1ncn(-c2ccccc2)n1)N1CCc2ccccc21,IC50,[1],> 64 µM (inactive)
COc1cc(C(=O)NNC(=O)C2CC=CCC2C(=O)O)cc(OC)c1OC (centres undefined),IC50,[1],> 64 µM (inactive)
O=C(NC1CCC(O)CC1)c1cc(-c2ccco2)nc2ccccc12 (centres undefined),IC50,[1],50 µM (inactive)
same,EC50,Kallikrein-7,> 69.5 µM (inactive)
same,IC50,[2],5.9 µM (active)
Cc1noc(C)c1-c1cc(N2CCN(C)CC2)ncn1,AC50,Cytochrome P450 2C9,inconclusive
CSc1ccc(Cl)c(C(=O)NCCOc2cc(C)ccc2C(C)C)c1,AC50,Cytochrome P450 2C9,inconclusive
same,AC50,Cytochrome P450 3A4 [3],1 µM (inconclusive)
Cc1cc2ccccc2c(=O)n1CC(=O)NCCC1=CCCCC1,EC50,[4],> 50 µM (active)
O=Cc1cc2ccccc2nc1SCc1ccc(Cl)cc1,EC50,BJ [5],0.134 µM (active)
same,EC50,[6],0.724 µM (active)
same,EC50,[7],1.1 µM (active)
same,AC50,[8],3.66 µM (active)
same,EC50,BJ [9],0.699 µM (active)
same,EC50,[10],9.87 µM (active)
same,EC50,[11],0.745 µM (active)
same,EC50,BJ [12],0.434 µM (active)
same,EC50,BJ [13],0.635 µM (active)
CC(=O)Oc1c2c(c3c(c1CC=C(C)C)O[C@@]14C(=CC5CC1C(C)(C)OC4(C/C=C(\C)C(=O)O)C5=O)C3=O)OC(C)(CCC=C(C)C)C=C2 (some centres undefined),AC50,Cytochrome P450 3A4 [14],39.8 µM (inconclusive)
O=C(Cn1cnc2ccccc21)Nc1ccc(SC(F)F)cc1,EC50,[4],> 50 µM (active)
CCc1nnc(NC(=O)Cn2nc(-c3ccccc3OC)ccc2=O)s1,IC50,[1],> 64 µM (inactive)
Nc1nc2ncccn2c1-c1ccc(F)c(F)c1,EC50,Kallikrein-7,9.39 µM (active)
Cc1nn(Cc2noc(C(=O)NC3CCC(C)CC3)n2)c(C)c1Br (centres undefined),IC50,Protein Wnt-3a,4.35 µM (active)
same,AC50,[15],3.28 µM (active)
same,AC50,[16],6.78 µM (active)
O=C(Nc1ccc2c(c1)OCCO2)C1CCN(C(=O)c2ccccc2)CC1,AC50,Cytochrome P450 2D6,inconclusive
CCNc1cc(O)ccc1C,AC50,Cytochrome P450 3A4 [14],25.1 µM (inconclusive)
O=C(O)CSSCC(=O)O,AC50,Cytochrome P450 2D6,inconclusive
same,AC50,Cytochrome P450 2C19,inconclusive
COc1ccc(/C=C/C(O)=C2/C(=O)NC3(C)CC2c2ccccc2O3)c(OC)c1OC (centres undefined),EC50,Kallikrein-7,> 69.6 µM (inactive)
Cn1cccc1C(=O)N1CCC2(CC1)CCN(c1ccc(-c3ccccc3)cc1)CC2,AC50,Cytochrome P450 1A2,20 µM (inconclusive)
same,AC50,Cytochrome P450 3A4 [17],inconclusive
COCC(=O)Oc1c(Sc2ccccc2[N+](=O)[O-])c(C)nn1C(C)(C)C,IC50,[1],50 µM (inactive)
